Data: patent publication US8202887B2, “2-(substituted-amino)-benzothiazole sulfonamide HIV protease inhibitors” (Janssen R&D Ireland, priority 2006, dated 2012)

How the values were obtained:
[1] = tested on: wild type laboratory HIV strain (WT IIIB-2-001); test: Cellular anti-viral assay in MT4-LTR-EGFP cells, wild type strain; assay type: cell-based; conditions: Human immunodeficiency virus 1, IIIB, 72 h; MT4-LTR-EGFP cells, three days, GFP signal; read-out: pEC50 WT-IIIB-2-001 (converted)
Procedure: The compounds were tested in a cellular assay using the MT4-LTR-EGFP cells for anti-viral activity.
The cellular assay was performed according to the following procedure. HIV- or mock-infected MT4-LTR-EGFP cells were incubated for three days in the presence of various concentrations of the compounds according to the invention. Upon infection, the viral tat protein activates the GFP reporter. At the end of the incubation period, the GFP signal was measured. […] The inhibitory activity of the compound was monitored on the virus-infected cells and was expressed as EC50. These values represent the amount of the compound required to protect 50% of the cells from virus infection.

[2] = tested on: clinically isolated HIV strain C; test: Cellular anti-viral assay in MT4-LTR-EGFP cells, mutant strain C; assay type: cell-based; conditions: Human immunodeficiency virus 1, 72 h, read-out: pEC50 virus strain C (converted)
Procedure: (§1) Because of the increasing emergence of drug resistant HIV strains, the present compounds were tested for their potency against clinically isolated HIV strains harboring several mutations. These mutations are associated with resistance to protease inhibitors and result in viruses that show various degrees of phenotypic cross-resistance to the currently commercially available drugs such as for instance saquinavir, ritonavir, nelfinavir, indinavir and amprenavir. The viral strains coded as A, B, C and D contain mutations as indicated below in Table 2.
(§2) The cellular assay was performed according to the following procedure. HIV- or mock-infected MT4-LTR-EGFP cells were incubated for three days in the presence of various concentrations of the compounds according to the invention. Upon infection, the viral tat protein activates the GFP reporter. At the end of the incubation period, the GFP signal was measured. In the virus control samples (in the absence of any inhibitor) the maximal fluorescent signal was obtained. The inhibitory activity of the compound was monitored on the virus-infected cells and was expressed as EC50. These values represent the amount of the compound required to protect 50% of the cells from virus infection. (Table 3).

[3] = tested on: Beagle dogs; test: Hypersensitivity testing: erythema and edema in dogs, single dose; assay type: in vivo; conditions: for induction of erythema and/or edema: single dose experiments in dogs, summary in words
Procedure: (§3) Studies were carried out to test for the occurrence of erythema and edema in dogs. The compound having structural formula (II) was orally administered to Beagle dogs in an appropriate formulation as a single-dose, dose-escalating study design. In order to achieve high systemic exposures, a so-called booster compound was co-administered (ritonavir, RTV). Blood samples were taken at regular time points following the dosing. Clinical signs were recorded at least once daily for the treatment period and follow up (for at least 24 hours). Symptoms were graded on a […], with 0 being absence of symptoms, 1 mild, 2, moderate, 3 severe, 4 very severe. Special attention was paid to the occurrence of erythema and edema.

[4] = tested on: clinically isolated HIV strain A; test: Cellular anti-viral assay in MT4-LTR-EGFP cells, mutant strain A; assay type: cell-based; conditions: Human immunodeficiency virus 1, 72 h, read-out: pEC50 virus strain A (converted)
Procedure: as §1, §2

[5] = tested on: Beagle dogs; test: 28 day / 1-month toxicology study in beagle dogs; assay type: in vivo; conditions: for erythema and edema after oral administration: summary of toxicology studies up to 1 month in duration, beagle dog
Procedure: These findings occurred shortly after dosing, were transient in nature, maximal between approximately 1 to 2 hours after dosing, disappearing thereafter. There was a large interindividual variation in this response, with no dose-response relationship. Mechanistic studies to clarify the cause for erythema were not indicative of a histamine-based mechanism of action.

[6] = Pharmacokinetics of compound II and boosting effect of ritonavir in fed male beagle dogs; assay type: in vivo; conditions: for AUC(0-inf) / Cmax: male, beagle, dog, plasma, po
Procedure: Pharmacokinetics of Compound II and Boosting Effect of Ritonavir in Fed Male Beagle Dogs after Single Oral Administration of Compound II at 10 or 40 mg/kg.
The present study was performed to study the plasma pharmacokinetics of compound II in male beagle dogs after single oral administration doses of 10 and 40 mg/kg, and to evaluate the potential boosting effect of ritonavir, dosed at 10 mg/kg twice daily, on the bioavailability of compound II.
Beagle dogs (7-11 kg body weight) were dosed after feeding. Both compound II and ritonavir were given by gavage of an oral solution. All animals first received compound II alone, and after a washout of one week, the combination of ritonavir and compound II in the morning. Ritonavir dosing was repeated in the evening and on the next day's morning. Plasma was sampled to measure compound II and ritonavir concentrations until 32 hours after dosing of compound II.

[7] = tested on: clinically isolated HIV strain D; test: Cellular anti-viral assay in MT4-LTR-EGFP cells, mutant strain D; assay type: cell-based; conditions: Human immunodeficiency virus 1, 72 h, read-out: pEC50 virus strain D (converted)
Procedure: as §1, §2

[8] = tested on: clinically isolated HIV strain B; test: Cellular anti-viral assay in MT4-LTR-EGFP cells, mutant strain B; assay type: cell-based; conditions: Human immunodeficiency virus 1, 72 h, read-out: pEC50 virus strain B (converted)
Procedure: as §1, §2

[9] = Plasma exposure (AUC) in single-dose, dose-escalating dog study; assay type: in vivo, Beagle dogs; conditions: beagle
Procedure: as §3, with “edema. The concentration of the compound having formula (II) in dog plasma was determined using a LC-MS/MS method. Raw data were used to calculate standard pharmacokinetic parameters (e.g. AUC) as a measure of systemic exposure. The systemic exposure for the compound having formula (II) was compared to the exposure of a reference compound having structural formula (III), in similar single-dose experiments in dogs, in the absence of a booster (ritonavir).” for “edema.”

[10] = tested on: beagle dog; test: Single dose escalation/five day repeat dose toxicology study in beagle dog; assay type: in vivo
Procedure: In a single dose escalation/S day repeat dose dog toxicology study, beagle dogs were treated with compound II according to the current invention at dose levels from 40 up to 144 mg/kg day.

[11] = tested on: beagle dog; test: Oral 3 month dog toxicology study; assay type: in vivo
Procedure: In some cases, these symptoms started as maculate erythema and/or nodular swelling and progressed to diffuse/general erythema and swelling. Signs were predominantly visible in areas with thin/sparse fur including the ears, periorbital region and abdomen. The findings were transient, with maximal severity about one hour after dosing and disappearing or decreasing to lower severity by 4 hours post-administration.

[12] = 10 mg/kg, 10 mg/kg compound II single oral, with Ritonavir 10 mg/kg twice daily
[13] = 10 mg/kg, 10 mg/kg compound II single oral, without Ritonavir
[14] = 40 mg/kg compound II single oral, with Ritonavir 10 mg/kg twice daily
[15] = 40 mg/kg, 40 mg/kg compound II single oral, without Ritonavir

Compound: CC(C)CN(C[C@@H](O)[C@H](Cc1ccccc1)NC(=O)O[C@H]1CO[C@H]2OCC[C@H]21)S(=O)(=O)c1ccc2nc(NC3CCN(C4CCCC4)CC3)sc2c1 [Compound 7, (1-benzyl-3-{[2-(1-cyclopentyl-piperidin-4-ylamino)-benzothiazole-6-sulfonyl]-isobutyl-amino}-2-hydroxy-propyl)-carbamic acid hexahydro-furo[2,3-b]furan-3-yl ester]
- EC50 [1]: 13.2 nM
- EC50 [2]: 2880 nM
- Erythema/edema ([3]; oral single dose 20 mg/kg, with ritonavir (RTV) coadministration): No
- Erythema/edema ([3]; oral single dose 40 mg/kg, with ritonavir (RTV) coadministration): No
- Erythema/edema ([3]; oral single dose 80 mg/kg, with ritonavir (RTV) coadministration): No
- induction of erythema and/or edema [3]: did not induce erythema and/or edema
- EC50 [4]: 11.7 nM
- Erythema/edema ([5]; 1-month study, dose levels 5, 20 and 40 mg/kg/day): neither erythema nor edema was noted
- erythema and edema after oral administration [5]: did not induce erythema and/or edema
- Cmax Ratio (with/without Ritonavir) ([6]; 10 mg/kg compound II): 7.1
- Relative bioavailability Frel (AUC0-inf with vs without Ritonavir) ([6]; 10 mg/kg compound II): 1378%
- Cmax Ratio (with/without Ritonavir) ([6]; 40 mg/kg compound II): 3.6
- Relative bioavailability Frel (AUC0-inf with vs without Ritonavir) ([6]; 40 mg/kg compound II): 1083%
- increase of AUC in the presence of ritonavir ([6]; 10 and 40 mg/kg compound II): over 10 fold
- increase of Cmax in the presence of ritonavir ([6]; 10 and 40 mg/kg compound II): 4 to 7 fold
- AUC(0-inf) [6, 12]: 4370 ng·h/mL
- Cmax [6, 12]: 879 ng/mL
- AUC(0-inf) [6, 13]: 330 ng·h/mL
- Cmax [6, 13]: 123 ng/mL
- AUC(0-inf) [6, 14]: 23600 ng·h/mL
- Cmax [6, 14]: 4220 ng/mL
- AUC(0-inf) [6, 15]: 2290 ng·h/mL
- Cmax [6, 15]: 1190 ng/mL
- total plasma exposure (AUC) and peak plasma concentrations (Cmax) after co-administration with ritonavir ([6]; twice-daily dosing of 10 mg/kg ritonavir, in words): markedly increased
- EC50 [7]: 13.5 nM
- EC50 [8]: 20 nM
- AUC ([9]; oral single dose 20 mg/kg, with ritonavir (RTV) coadministration, mean of 4 animals): 7750 ng·h/mL
- AUC ([9]; oral single dose 40 mg/kg, with ritonavir (RTV) coadministration, mean of 4 animals): 23000 ng·h/mL
- AUC ([9]; oral single dose 80 mg/kg, with ritonavir (RTV) coadministration, mean of 4 animals): 23000 ng·h/mL
- edema or erythema ([10]; dose levels from 40 up to 144 mg/kg day): No evidence of edema or erythema

Compound: CC(C)CN(C[C@@H](O)[C@H](Cc1ccccc1)NC(=O)O[C@H]1CO[C@H]2OCC[C@H]21)S(=O)(=O)c1ccc2nc(NCCN3CCCC3)sc2c1 [Reference compound having formula (III)]
- erythema or edema ([11]; 10 mg/kg/day): No erythema or edema was observed
- erythema ([11]; 40 mg/kg/day, after 5 weeks of treatment): one of four males dosed at 40 mg/kg/day exhibited general erythema
- erythema of the skin and swelling ([11]; 120 mg/kg/day, majority of the animals, entire treatment period): slight to severe erythema of the skin, accompanied by swelling
- time after dosing of maximal severity of erythema/swelling ([11]; 3 month study, transient findings): about one
- Erythema/edema ([3]; single dose 10 mg/kg, absence of booster): No
- Erythema/edema ([3]; single dose 40 mg/kg, absence of booster): No
- Erythema/edema ([3]; single dose 80 mg/kg, absence of booster): Yes
- Erythema/edema ([3]; single dose 120 mg/kg, absence of booster): Yes
- induction of erythema and/or edema [3]: did induce these clinical signs
- redness of the skin (erythema) ([5]; 28 day study, all dose levels (40, 80, 120 mg/kg/day), most animals): slight to severe redness of the skin
- onset of erythema symptoms ([5]; 28 day study, dose levels 80 and 120 mg/kg/day): present from the start of the study
- onset of erythema symptoms ([5]; 28 day study, low dose level 40 mg/kg/day): third week
- swelling (edema) accompanying erythema ([5]; 28 day study, head, flews, eyes and/or ears, most cases): accompanied by swelling (edema)
- time after dosing of maximal erythema/edema findings ([5]; 28 day study, transient findings): 1 to 2 h
- erythema and edema after oral administration [5]: produced erythema and edema
- AUC ([9]; oral, single dose 10 mg/kg, absence of booster, range): 47 to 238 ng·h/mL
- AUC ([9]; oral, single dose 40 mg/kg, absence of booster, range): 3320 to 5090 ng·h/mL
- AUC ([9]; oral, single dose 80 mg/kg, absence of booster, range): 7370 to 16000 ng·h/mL
- AUC ([9]; oral, single dose 120 mg/kg, absence of booster, range): 10200 to 27500 ng·h/mL
- erythema ([10]; high dose level 80 mg/kg/day, after five consecutive days of treatment): exhibited general erythema
